# Assay results as given in patent US20240246932A1 (Merck Sharp & Dohme LLC, priority 2021, published 2024).
# Molecular target: human NaV 1.8 channels stably expressed in HEK 293 cells (Homo sapiens (Human), UniProt Q9Y5Y9)
# Experiment: Nav1.8 Qube automated patch-clamp assay
# Assay type: cell-based
# Settings: human NaV1.8 in HEK 293 cells, whole-cell voltage clamp, room temperature; read-out: IC50 values (nM) for Examples in the Nav1.8 Qube Assay
# Description: Compounds were tested on human NaV 1.8 and NaV1.5 channels stably expressed in human embryo kidney (HEK) 293 cells. Sodium current measurements on Qube® were conducted as follows: automated 384-well patch-clamp assays on the Qube® platform (Sophion Biosciences) were used to measure the inhibition of sodium flow through human NaV1.8 and NaV1.5 channels. Whole-cell voltage-clamp recordings were performed in QChips® (Sophion Biosciences) at room temperature. NaV1.8 current measurements on Qube® were obtained as follows: NaV1.8 currents were elicited with a 10 second 1 Hertz (Hz) pulse train from a holding potential of −90 millivolts (mV), delivered to the cells once per minute in the control condition (DMSO only) and after compound addition. The 1 hertz pulse train stimulation consisted of ten test pulses to 10 millivolt (mV) for 20 milliseconds (ms), each of which was followed by a 980 millisecond repolarization to −67 millivolts. At the end of the 10 second pulse train stimulation, a 5 second hyperpolarization step to −100 millivolt (mV) was used to recover NaV1.8 from fast inactivation. The peak currents elicited by the 1st and 10th test pulses were used to determine IC50 values for resting inhibition and inactivated state inhibition. NaV1.5 current measurements on Qube® were obtained as follows: NaV1.5 currents were elicited with a 20 second 3 Hertz pulse train in the control condition (DMSO only) and after compound addition. The pulse train consisted of sixty 20 millisecond test pulses to 0 millivolt from a holding potential of −80 millivolt (mV). The average peak currents elicited by the last 3 test pulses were used to determine IC50 values for NaV1.5 inhibition.
# The following buffers were used for the Qube® recordings: External buffer for NaV1.8 Qube® recording: 150 NaCl, 2 CaCl2, 5 KCl, 1 MgCl2, 10 HEPES, 12 Dextrose; External buffer for Qube® NaV1.5 recording: 120 N-Methyl-D-Glucamine, 40 NaCl, 1 KCl, 2.7 CaCl2), 5 HEPES, 0.5 MgCl2; and Internal buffer for Qube® recording: 120 CsF, 30 CsCl, 10 EGTA, 5 HEPES, 5 NaF, 2 MgCl2.
# For all Qube® experiments offline analysis was used to determine percent inhibition as a function of drug concentration. IC50 values were determined by fitting to the Hill equation.
# Sequence of human NaV 1.8 channels stably expressed in HEK 293 cells (Q9Y5Y9 whole entry): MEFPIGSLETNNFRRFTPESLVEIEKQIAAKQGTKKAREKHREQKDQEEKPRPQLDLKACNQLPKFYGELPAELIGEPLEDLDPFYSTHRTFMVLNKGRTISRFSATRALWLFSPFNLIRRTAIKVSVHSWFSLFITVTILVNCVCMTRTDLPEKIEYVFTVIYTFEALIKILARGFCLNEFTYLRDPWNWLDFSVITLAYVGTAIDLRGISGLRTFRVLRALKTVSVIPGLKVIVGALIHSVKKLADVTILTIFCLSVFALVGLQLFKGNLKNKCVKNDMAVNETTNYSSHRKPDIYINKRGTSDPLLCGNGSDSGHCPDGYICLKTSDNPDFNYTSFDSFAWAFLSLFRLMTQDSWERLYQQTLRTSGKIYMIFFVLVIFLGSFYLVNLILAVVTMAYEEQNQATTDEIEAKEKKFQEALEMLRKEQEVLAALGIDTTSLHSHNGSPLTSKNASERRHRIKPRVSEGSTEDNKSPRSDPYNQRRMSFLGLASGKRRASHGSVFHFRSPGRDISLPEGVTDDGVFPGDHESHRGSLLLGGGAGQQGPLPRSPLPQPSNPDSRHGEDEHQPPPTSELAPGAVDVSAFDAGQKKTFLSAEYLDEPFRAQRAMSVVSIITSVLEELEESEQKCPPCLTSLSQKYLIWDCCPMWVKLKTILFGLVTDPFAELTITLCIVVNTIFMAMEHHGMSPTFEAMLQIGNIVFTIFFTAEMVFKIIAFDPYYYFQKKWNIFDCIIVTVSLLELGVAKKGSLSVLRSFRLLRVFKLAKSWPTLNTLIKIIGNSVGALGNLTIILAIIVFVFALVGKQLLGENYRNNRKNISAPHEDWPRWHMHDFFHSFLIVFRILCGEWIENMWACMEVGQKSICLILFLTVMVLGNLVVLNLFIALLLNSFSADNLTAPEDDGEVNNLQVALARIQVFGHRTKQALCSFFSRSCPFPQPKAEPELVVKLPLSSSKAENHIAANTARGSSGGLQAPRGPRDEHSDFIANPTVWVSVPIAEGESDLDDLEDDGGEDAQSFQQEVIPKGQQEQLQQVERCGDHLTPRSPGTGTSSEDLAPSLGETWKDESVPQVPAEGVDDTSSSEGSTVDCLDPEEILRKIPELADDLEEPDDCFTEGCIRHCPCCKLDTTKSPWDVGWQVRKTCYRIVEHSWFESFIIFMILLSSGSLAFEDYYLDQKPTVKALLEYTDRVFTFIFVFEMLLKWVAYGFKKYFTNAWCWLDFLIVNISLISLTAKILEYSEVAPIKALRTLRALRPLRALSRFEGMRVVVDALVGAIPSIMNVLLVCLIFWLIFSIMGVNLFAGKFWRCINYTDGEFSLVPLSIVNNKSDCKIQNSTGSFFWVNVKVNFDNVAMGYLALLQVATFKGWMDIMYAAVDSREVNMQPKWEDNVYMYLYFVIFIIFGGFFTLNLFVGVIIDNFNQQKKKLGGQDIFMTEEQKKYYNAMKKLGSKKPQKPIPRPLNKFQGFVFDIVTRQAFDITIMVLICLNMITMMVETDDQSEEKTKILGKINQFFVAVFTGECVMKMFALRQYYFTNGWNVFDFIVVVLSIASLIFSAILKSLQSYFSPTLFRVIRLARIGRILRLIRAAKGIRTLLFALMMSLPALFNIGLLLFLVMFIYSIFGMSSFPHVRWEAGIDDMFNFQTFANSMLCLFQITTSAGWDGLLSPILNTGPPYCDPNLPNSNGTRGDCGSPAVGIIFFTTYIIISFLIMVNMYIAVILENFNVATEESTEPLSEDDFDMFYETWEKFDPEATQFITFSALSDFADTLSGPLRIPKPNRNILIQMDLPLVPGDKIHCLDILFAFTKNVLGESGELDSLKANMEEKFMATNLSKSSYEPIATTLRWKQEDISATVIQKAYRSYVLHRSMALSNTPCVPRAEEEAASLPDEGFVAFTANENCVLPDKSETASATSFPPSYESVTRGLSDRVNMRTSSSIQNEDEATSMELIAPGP
row,IC50,Structure (SMILES)
1,1.89 nM,"C[C@@H]1C(=O)NCCN1C(=O)NC(c1ccc(F)c(Cl)c1)c1cnc(C(F)(F)F)c(Cl)c1 (single isomer, unassigned) [Example 26A, (2R)-N-((R or S)-(3-chloro-4-fluoro-phenyl)(5-chloro-6-(trifluoromethyl)pyridin-3-yl)methyl)-2-methyl-3-oxopiperazine-1-carboxamide]"
2,3.76 nM,"C[C@@H]1C(=O)NCCN1C(=O)NC(c1cnc(C(F)(F)F)c(Cl)c1)c1ccc(F)c(C(F)(F)F)n1 (single isomer, unassigned) [Example 82B]"
3,3.54 nM,"O=C1CN(C(=O)NC(c2ccc(Cl)c(C(F)(F)F)n2)c2ccc(F)c(Cl)c2F)CCN1 (single isomer, unassigned) [Example 78B, N-((S or R)-(3-chloro-2,4-difluorophenyl)(5-chloro-6-(trifluoro-methyl)pyridin-2-yl)methyl)-3-oxopiperazine-1-carboxamide]"
4,924 nM,"C[C@H]1CN(C(=O)NC(c2ccc(F)c(Cl)c2)c2cccc(C(F)(F)F)n2)CC(=O)N1 (single isomer, unassigned) [Example 46A, (3S)-N-((R or S)-(3-chloro-4-fluoro-phenyl)(6-(trifluoro-methyl)pyridin-2-yl)methyl)-3-methyl-5-oxopiperazine-1-carboxamide]"
5,154 nM,"C[C@@H]1C(=O)NCCN1C(=O)NC(c1ccc(F)c(Cl)c1)c1cc(C(F)(F)F)nn1C (single isomer, unassigned) [Example 86B, (2R)-N-((S or R)-(3-chloro-4-fluoro-phenyl)(1-methyl-3-(trifluoro-methyl)-1H-pyrazol-5-yl)methyl)-2-methyl-3-oxo-piperazine-1-carboxamide]"
6,2.22 nM,"O=C1NCCN(C(=O)NC(c2ccc(C(F)(F)F)nc2)c2ccc(F)c(Cl)c2F)C1C1CC1 (single isomer, unassigned) [Example 38B, N—((R or S)-(3-chloro-2,4-difluorophenyl)(6-(trifluoromethyl)pyridin-3-yl)methyl)-(S)-2-cyclopropyl-3-oxopiperazine-1-carboxamide]"
7,0.58 nM,"C[C@@H]1C(=O)NCCN1C(=O)NC(c1ccc(F)c(Cl)c1)c1ccc(Cl)c(C(F)(F)F)n1 (single isomer, unassigned) [Example 79, (2R)-N-((R or S)-(3-chloro-4-fluoro-phenyl)(5-chloro-6-(trifluoromethyl)pyridin-2-yl)methyl)-2-methyl-3-oxopiperazine-1-carboxamide]"
8,3.81 nM,"C[C@@H]1C(=O)NCCN1C(=O)NC(c1ccc(F)c(Cl)c1)c1cnc(C(F)(F)F)c(Cl)c1 (single isomer, unassigned) [Example 26B, (2R)-N-((S or R)-(3-chloro-4-fluoro-phenyl)(5-chloro-6-(trifluoromethyl)pyridin-3-yl)methyl)-2-methyl-3-oxopiperazine-1-carboxamide]"
9,3.59 nM,"C[C@@H]1C(=O)NCCN1C(=O)NC(c1ccc(F)c(Cl)c1)c1cc(C(F)(F)F)nn1C (single isomer, unassigned) [Example 86A, (2R)-N-((R or S)-(3-chloro-4-fluoro-phenyl)(1-methyl-3-(trifluoro-methyl)-1H-pyrazol-5-yl)methyl)-2-methyl-3-oxopiperazine-1-carboxamide]"
10,1.38 nM,"C[C@@H]1C(=O)NCCN1C(=O)NC(c1ccc(Cl)c(F)c1)c1ccc(F)c(C(F)(F)F)n1 (single isomer, unassigned) [Example 53B, (2R)-N-((S or R)-(4-chloro-3-fluoro-phenyl)(5-fluoro-6-(trifluoromethyl)pyridin-2-yl)methyl)-2-methyl-3-oxopiperazine-1-carboxamide]"
11,125 nM,"C[C@@H]1C(=O)NCCN1C(=O)NC(c1ccc(F)c(Cl)c1)c1ccn(C(F)F)n1 (single isomer, unassigned) [Example 66A]"
12,34.6 nM,"C[C@@H]1C(=O)NCCN1C(=O)NC(c1ccc(Cl)cc1)c1ccc(C(F)(F)F)nc1 (single isomer, unassigned) [Example 17B, (2R)-N-((S or R)-(4-chlorophenyl)(6-(trifluoromethyl)pyridin-3-yl)methyl)-2-methyl-3-oxopiperazine-1-carboxamide]"
13,2310 nM,"O=C1CN(C(=O)NC(c2ccc(F)c(Cl)c2)c2cccc(C(F)(F)F)n2)[C@@H](CF)CN1 (single isomer, unassigned) [Example 47A, (2R)-N-((R or S)-(3-chloro-4-fluoro-phenyl)(6-(trifluoro-methyl)pyridin-2-yl)methyl)-2-(fluoromethyl)-5-oxopiperazine-1-carboxamide]"
14,68.9 nM,"C[C@@H]1C(=O)NCCN1C(=O)NC(c1ccc(Cl)c(F)c1)c1ccc(F)c(C(F)(F)F)n1 (single isomer, unassigned) [Example 53A, (2R)-N-((R or S)-(4-chloro-3-fluoro-phenyl)(5-fluoro-6-(trifluoromethyl)pyridin-2-yl)methyl)-2-methyl-3-oxopiperazine-1-carboxamide]"
15,101 nM,"C[C@@H]1C(=O)NCCN1C(=O)NC(c1ccc(Cl)cc1)c1ccc(C(F)(F)F)nc1 (single isomer, unassigned) [Example 17A, (2R)-N-((R or S)-(4-chlorophenyl)(6-(trifluoromethyl)pyridin-3-yl)methyl)-2-methyl-3-oxopiperazine-1-carboxamide]"

# The next lines start with the compound.
row,Structure (SMILES),IC50
1,"C[C@@H]1C(=O)NCCN1C(=O)NC(c1cnc(OCC(F)(F)F)nc1)c1ccc(F)c(Cl)c1F (single isomer, unassigned) [Example 12A]",9.24 nM
2,"C[C@@H]1C(=O)NCCN1C(=O)NC(c1ccc(OC(F)(F)F)c(Cl)c1)c1coc(C(F)(F)F)n1 (single isomer, unassigned) [Example 64B, (2R)-N-((S or R)-(3-chloro-4-(trifluoro-methoxy)phenyl)(2-(trifluoromethyl)oxazol-4-yl)methyl)-2-methyl-3-oxopiperazine-1-carboxamide]",3.5 nM
3,"C[C@@H]1C(=O)NCCN1C(=O)NC(c1cnc(OCC(F)(F)F)c(F)c1)c1ccc(F)c(C(F)(F)F)n1 (single isomer, unassigned) [Example 48A]",4.78 nM
4,"C[C@@H]1C(=O)NCCN1C(=O)NC(c1cnc(C(F)(F)F)c(Cl)c1)c1ccc(F)c(Cl)c1F (single isomer, unassigned) [Example 35, (2R)-N-((R or S)-(3-chloro-2,4-difluorophenyl)(5-chloro-6-(trifluoromethyl)pyridin-3-yl)methyl)-2-methyl-3-oxopiperazine-1-carboxamide]",1.13 nM
5,"C[C@@H]1C(=O)NCCN1C(=O)NC(c1ccc(OC(F)(F)F)c(F)c1)c1cnc(C(F)(F)F)c(Cl)c1 (single isomer, unassigned) [Example 21A, (2R)-N-((R or S)-(5-chloro-6-(trifluoro-methyl)pyridin-3-yl)(3-fluoro-4-(trifluoromethoxy)phenyl)methyl)-2-methyl-3-oxopiperazine-1-carboxamide]",1.45 nM
6,"C[C@@H]1C(=O)NCCN1C(=O)NC(c1cnc(C(F)(F)F)nc1)c1ccc(F)c(Cl)c1F (single isomer, unassigned) [Example 30B, (2R)-N-((S or R)-(3-chloro-2,4-difluoro-phenyl)(2-(trifluoro-methyl)pyrimidin-5-yl)methyl)-2-methyl-3-oxopiperazine-1-carboxamide]",9.18 nM
7,"C[C@@H]1C(=O)NCCN1C(=O)NC(c1cnc(C(F)(F)F)nc1)c1ccc(Cl)c(Cl)c1 (single isomer, unassigned) [Example 28A, (2R)—N—((R or S)-(3,4-dichlorophenyl)(2-(trifluoromethyl)pyrimidin-5-yl)methyl)-2-methyl-3-oxopiperazine-1-carboxamide]",10.8 nM
8,"C[C@@H]1C(=O)NCCN1C(=O)NC(c1cnc(C(F)(F)F)c(Cl)c1)c1ccc(Cl)c(C(F)(F)F)n1 (single isomer, unassigned) [Example 83A]",6.51 nM
9,"C[C@@H]1C(=O)NCCN1C(=O)NC(c1ccc(OC(F)F)nc1)c1ccc(F)c(Cl)c1F (single isomer, unassigned) [Example 31B, (2R)-N-((S or R)-(3-chloro-2,4-difluoro-phenyl)(6-(difluoro-methoxy)pyridin-3-yl)methyl)-2-methyl-3-oxopiperazine-1-carboxamide]",16.1 nM
10,"C[C@@H]1C(=O)NCCN1C(=O)NC(c1ccc(OC(F)(F)F)c(F)c1)c1cnc(C(F)(F)F)c(Cl)c1 (single isomer, unassigned) [Example 21B, (2R)-N-((S or R)-(5-chloro-6-(trifluoro-methyl)pyridin-3-yl)(3-fluoro-4-(trifluoro-methoxy)phenyl)methyl)-2-methyl-3-oxo-piperazine-1-carboxamide]",7.71 nM
